Patent publication US8946438B2, “Benzamides, production thereof, and use thereof as medicaments” (Boehringer Ingelheim International GmbH, priority 2008, dated 2015)

Molecular target: p38 MAP-kinase (Homo sapiens, UniProt Q16539)
Assay: Enzymatic assay: inhibition of p38 MAP-kinase (phosphorylation of GST-tagged ATF2, chemoluminescence bead readout)
Assay type: biochemical
Conditions: inhibitor 1 μM; activated p38 MAP-kinase 1 nM; 4 h preincubation; ATP 100 μM; ATF2 10 nM
Protocol: In this, the amount of a substrate phosphorylated by the kinase is quantified. The test is carried out as follows:
The kinase reaction is carried out in the presence of HEPES (20 mM, pH 7), MgCl2 (10 mM), DTT (1 mM) and TWEEN20 (0.01%). First, dimethylsulphoxide or inhibitor (final concentration: 1 μM) dissolved in dimethylsulphoxide are placed in a reaction vessel. Then the activated p38 MAP-kinase (final concentration 1 nM) is added and the mixture is incubated for 4 h at ambient temperature. Then a mixture of substrate (GST-tagged ATF2) and ATP is added and everything is incubated together for a further hour (final concentration ATP: 100 μM; final concentration ATF2: 10 nM).
The concentration of phosphorylated ATF2 is quantified by chemoluminescence-induced light emission. For this, a glutathione donor bead (final concentration: 5 μg/ml) which binds to the gluthathione on the ATF2 and phospho-ATF2 antibodies are added to the reaction mixture (final concentration: 3 nM; this binds the phosphate group added by the kinase reaction) to which a Protein A Acceptor Bead (final concentration: 5 μg/ml) binds. These components are dissolved in a buffer which contains 20 mM HEPES pH 7.0, 200 mM NaCL, 80 mM EDTA as well as 0.3% BSA. This reaction mixture is incubated in the dark for 1 hour at ambient temperature. When these beads come physically close, visible light is emitted which is measured in a photometer at 520-620 nm.
To determine the inhibitory activity of the compounds according to the invention a calculation is made to determine the percentage by which the kinase activity is inhibited at a fixed inhibitor concentration of 1 μM. The maximum activity is determined by non-inhibited kinase. The minimum activity or nonspecific background activity is determined using a reaction mixture without kinase. […] Table 2 summarises the degree of inhibition of the enzyme p38 MAP-kinase—as described hereinbefore—of the compounds according to the invention detailed in the section “Preparation of the final compounds”.

Sequence of p38 MAP-kinase (Q16539 whole entry): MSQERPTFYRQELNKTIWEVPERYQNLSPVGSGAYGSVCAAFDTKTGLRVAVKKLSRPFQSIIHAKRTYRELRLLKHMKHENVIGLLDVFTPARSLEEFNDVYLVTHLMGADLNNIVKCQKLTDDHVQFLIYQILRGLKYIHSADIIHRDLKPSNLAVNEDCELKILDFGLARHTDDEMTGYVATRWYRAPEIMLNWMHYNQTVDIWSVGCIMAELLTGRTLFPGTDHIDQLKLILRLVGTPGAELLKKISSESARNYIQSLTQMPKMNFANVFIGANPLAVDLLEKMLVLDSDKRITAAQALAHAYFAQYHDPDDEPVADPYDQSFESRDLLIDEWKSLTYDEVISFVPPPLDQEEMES

% inhibitory effect at 1 μM	Compound
97.6%	COc1c(NC(=O)c2ccc(C)c(Oc3ccnc(N(C)C4CCNCC4)n3)c2)cc(C(C)(C)C)cc1NS(C)(=O)=O [5(25), N-(5-tert-butyl-3-methanesulphonylamino-2-methoxy-phenyl)-4-methyl-3-[2-(methyl-piperidin-4-yl-amino)-pyrimidin-4-yloxy]-benzamide]

Same assay, conditions: inhibitor 1 μM; activated p38 MAP-kinase 1 nM; 4 h preincubation; ATP 100 μM; ATF2 10 nM; read-out: % inhibitory effect at 1 μM

inhibition at 1 µM	Compound
98.5%	COc1c(NC(=O)c2ccc(C)c(Oc3ccnc(CC4CCN(C)CC4)c3)c2)cc(C(C)(C)C)cc1NS(C)(=O)=O [9(2), N-(5-tert-butyl-3-methanesulphonylamino-2-methoxy-phenyl)-4-methyl-3-[2-(1-methyl-piperidin-4-ylmethyl)-pyridin-4-yloxy]-benzamide]
99%	COc1c(NC(=O)c2ccc(C)c(Oc3ccnc(N4CCNCC4)n3)c2)cc(C(C)(C)C)cc1NS(C)(=O)=O [Example 5, N-(5-tert-butyl-3-methanesulphonylamino-2-methoxy-phenyl)-4-methyl-3-(2-piperazin-1-yl-pyrimidin-4-yloxy)-benzamide x trifluoroacetic acid]
99%	COc1c(NC(=O)c2ccc(C)c(Oc3ccnc(N[C@H]4CC[C@H](N(C)C)CC4)n3)c2)cc(C(C)(C)C)cc1NS(C)(=O)=O [4(18), N-(5-tert-butyl-3-methanesulphonylamino-2-methoxy-phenyl)-3-[2-(trans-4-dimethylamino-cyclohexylamino)-pyrimidin-4-yloxy]-4-methyl-benzamide]
97.8%	COc1c(NC(=O)c2ccc(C)c(Oc3ccnc(CNC4CCN(C)C4)n3)c2)cc(C(C)(C)C)cc1NS(C)(=O)=O (stereo not drawn) [8(23), N-(5-tert-butyl-3-methanesulphonylamino-2-methoxy-phenyl)-4-methyl-3-{2-[(1-methyl-pyrrolidin-3-ylamino)-methyl]-pyrimidin-4-yloxy}-benzamide]
98.3%	COc1c(NC(=O)c2ccc(C)c(Oc3ccnc(CN4CC[C@@H](N(C)C)C4)n3)c2)cc(C(C)(C)C)cc1NS(C)(=O)=O [8(22), (R)-N-(5-tert-butyl-3-methanesulphonylamino-2-methoxy-phenyl)-3-[2-(3-dimethylamino-pyrrolidin-1-ylmethyl)-pyrimidin-4-yloxy]-4-methyl-benzamide]
95.8%	COc1c(NC(=O)c2ccc(C)c(Oc3ccnc(CN4CCNC(=O)C4)n3)c2)cc(C(C)(C)C)cc1NS(C)(=O)=O [8(5), N-(5-tert-butyl-3-methanesulphonylamino-2-methoxy-phenyl)-4-methyl-3-[2-(3-oxo-piperazin-1-ylmethyl)-pyrimidin-4-yloxy]-benzamide]
98.6%	COc1c(NC(=O)c2ccc(C)c(Oc3ccnc(NC4CCN(C)CC4)n3)c2)cc(C(C)(C)C)cc1NS(C)(=O)=O [4(9), N-(5-tert-butyl-3-methanesulphonylamino-2-methoxy-phenyl)-4-methyl-3-[2-(1-methyl-piperidin-4-ylamino)-pyrimidin-4-yloxy]-benzamide]
99.1%	COc1c(NC(=O)c2ccc(C)c(Oc3cc(N4CCC(N(C)C)CC4)ncn3)c2)cc(C(C)(C)C)cc1NS(C)(=O)=O [4(11), N-(5-tert-butyl-3-methanesulphonylamino-2-methoxy-phenyl)-3-[6-(4-dimethylamino-piperidin-1-yl)-pyrimidin-4-yloxy]-4-methyl-benzamide]
97.9%	COc1c(NC(=O)c2ccc(C)c(Oc3ccnc(N(C)C4CCNC4)n3)c2)cc(C(C)(C)C)cc1NS(C)(=O)=O (stereo not drawn) [5(24), N-(5-tert-butyl-3-methanesulphonylamino-2-methoxy-phenyl)-4-methyl-3-[2-(methyl-pyrrolidin-3-yl-amino)-pyrimidin-4-yloxy]-benzamide]
99.4%	COc1c(NC(=O)c2ccc(C)c(Oc3ccnc(CN4CCCN(C)CC4)c3)c2)cc(C(C)(C)C)cc1NS(C)(=O)=O [8(20), N-(5-tert-butyl-3-methanesulphonylamino-2-methoxy-phenyl)-4-methyl-3-[2-(4-methyl-homopiperazin-1-ylmethyl)-pyridin-4-yloxy]-benzamide]

The next lines start with the molecule.

Compound	inhibition at 1 µM
COc1c(NC(=O)c2ccc(Cl)c(Oc3ccnc(CNCCN(C)C)n3)c2)cc(C(C)(C)C)cc1NS(C)(=O)=O [8(37), N-(5-tert-butyl-3-methanesulphonylamino-2-methoxy-phenyl)-4-chloro-3-{2-[(2-dimethylamino-ethylamino)-methyl]-pyrimidin-4-yloxy}-benzamide]	91.3%
COc1c(NC(=O)c2ccc(C)c(Oc3ccnc(CC4CCNCC4)n3)c2)cc(C(C)(C)C)cc1S(C)(=O)=O [5(38), N-(5-tert-butyl-3-methanesulphonyl-2-methoxy-phenyl)-4-methyl-3-(2-piperidin-4-ylmethyl-pyrimidin-4-yloxy)-benzamide]	98.8%
COc1c(NC(=O)c2ccc(C)c(Oc3ccnc(CN[C@H]4CCOC4)c3)c2)cc(C(C)(C)C)cc1NS(C)(=O)=O [8(11), (S)-N-(5-tert-butyl-3-methanesulphonylamino-2-methoxy-phenyl)-4-methyl-3-{2-[(tetrahydro-furan-3-ylamino)-methyl]-pyridin-4-yloxy}-benzamide]	96.7%
COc1c(NC(=O)c2ccc(C)c(Oc3ccnc(CN4CCCNCC4)c3)c2)cc(C(C)(C)C)cc1S(C)(=O)=O [5(39), N-(5-tert-butyl-3-methanesulphonyl-2-methoxy-phenyl)-3-(2-[1,4]diazepan-1-ylmethyl-pyridin-4-yloxy)-4-methyl-benzamide]	99.4%
COc1c(NC(=O)c2ccc(Cl)c(Oc3cc(CN4CCCNCC4)ncn3)c2)cc(C(C)(C)C)cc1NS(C)(=O)=O [5(36), N-(5-tert-butyl-3-methanesulphonylamino-2-methoxy-phenyl)-4-chloro-3-(6-[1,4]diazepan-1-ylmethyl-pyrimidin-4-yloxy)-benzamide]	99.3%
COc1c(CO)cc(C(C)(C)C)cc1NC(=O)c1ccc(C)c(Oc2ccnc(CN3CCN(C)CC3)n2)c1 [Example 13, N-(5-tert-butyl-3-hydroxymethyl-2-methoxy-phenyl)-4-methyl-3-[2-(4-methyl-piperazin-1-ylmethyl)-pyrimidin-4-yloxy]-benzamide]	98.2%
COc1c(NC(=O)c2ccc(Cl)c(Oc3cc(CN4CCN(C)CC4)ncn3)c2)cc(C(C)(C)C)cc1NS(C)(=O)=O [12(1), N-(5-tert-butyl-3-methanesulphonylamino-2-methoxy-phenyl)-4-chloro-3-[6-(4-methyl-piperazin-1-ylmethyl)-pyrimidin-4-yloxy]-benzamide]	99.4%
COc1c(NC(=O)c2ccc(C)c(Oc3cc(C(=O)N4CCNCC4)ncn3)c2)cc(C(C)(C)C)cc1NS(C)(=O)=O [5(2), N-(5-tert-butyl-3-methanesulphonylamino-2-methoxy-phenyl)-4-methyl-3-[6-(piperazine-1-carbonyl)-pyrimidin-4-yloxy]-benzamide x trifluoroacetic acid]	93.2%
COc1c(NC(=O)c2ccc(Cl)c(Oc3ccnc(NC4CCNCC4)c3)c2)cc(C(C)(C)C)cc1NS(C)(=O)=O [5(31), N-(5-tert-butyl-3-methanesulphonylamino-2-methoxy-phenyl)-4-chloro-3-[2-(piperidin-4-ylamino)-pyridin-4-yloxy]-benzamide]	99.4%
COc1c(NC(=O)c2ccc(C)c(Oc3ccnc(CNCCN(C)C)n3)c2)cc(C(C)(C)C)cc1NS(C)(=O)=O [8(25), N-(5-tert-butyl-3-methanesulphonylamino-2-methoxy-phenyl)-3-{2-[(2-dimethylamino-ethylamino)-methyl]-pyrimidin-4-yloxy}-4-methyl-benzamide]	98.6%
COc1c(NC(=O)c2ccc(C)c(Oc3ccnc(CC4CCNCC4)c3)c2)cc(C(C)(C)C)cc1[S+](C)[O-] (stereo not drawn) [5(48), N-(5-tert-butyl-3-methanesulphinyl-2-methoxy-phenyl)-4-methyl-3-(2-piperidin-4-ylmethyl-pyridin-4-yloxy)-benzamide]	99.4%
COc1c(NC(=O)c2ccc(C)c(Oc3ccnc(CC4CCNCC4)c3)c2)cc(C(C)(C)C)cc1NC(=O)C(C)C [5(47), N-(5-tert-butyl-3-isobutyrylamino-2-methoxy-phenyl)-4-methyl-3-(2-piperidin-4-ylmethyl-pyridin-4-yloxy)-benzamide]	97.3%
COc1c(NC(=O)c2cc(Cl)c(C)c(Oc3ccnc(CN4CCN(C)CC4)n3)c2)cc(C(C)(C)C)cc1NS(C)(=O)=O [7(5), N-(5-tert-butyl-3-methanesulphonylamino-2-methoxy-phenyl)-3-chloro-4-methyl-5-[2-(4-methyl-piperazin-1-ylmethyl)-pyrimidin-4-yloxy]-benzamide]	98.5%
